In ChEMBL document CHEMBL1201862, “PubChem BioAssay data set” (2004):
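How tested: cells in 96-well plates exposed to compound for 48 hours at five concentrations. At the GI50, growth is halved.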 Activity calls are given as the source filed them. Rule as the data show it: active = GI50 up to about 1.1 µM and inactive = higher.

Experiments:
Experiment in all cases: NCI tumour cell line growth inhibition, 48 h
RXF 631 = test system: RXF 631
SNB-78 = test system: SNB-78
M19-MEL = test system: M19-MEL
HOP-18 = test system: HOP-18
DLD-1 = test system: DLD-1
KM-20L2 = test system: KM-20L2
DMS-114 = test system: DMS-114
DMS-273 = test system: DMS-273
XF498 = test system: XF498

Measured: GI50

O=C1CCCCC12CCC/C2=N\O (configuration not stated)
inactive: RXF 631 > 100 µM | SNB-78 > 100 µM | M19-MEL > 100 µM | HOP-18 > 100 µM | DLD-1 > 100 µM | KM-20L2 > 100 µM | DMS-114 > 100 µM | DMS-273 > 100 µM

Cc1cc(C)nc(NS(=O)(=O)c2ccc(Nc3c4ccccc4nc4c(C(=O)Nc5ccc(S(=O)(=O)Nc6cc(C)on6)cc5)ccc(Cl)c34)cc2)n1
inactive: RXF 631 20.7 µM | SNB-78 29.2 µM | XF498 18.7 µM | M19-MEL 37.9 µM | DLD-1 17.2 µM | KM-20L2 19.5 µM

C/C(=N\NS(=O)(=O)c1ccc(C)cc1)C(CN1CCCCC1)C(c1ccccc1)c1c(O)c2ccccc2oc1=O (configuration not stated)
inactive: SNB-78 > 100 µM | XF498 > 100 µM | HOP-18 > 100 µM | DLD-1 > 100 µM | KM-20L2 > 100 µM

NC(CCCNCc1ccccc1)C(=O)O (configuration not stated)
inactive: RXF 631 > 100 µM | M19-MEL > 100 µM | HOP-18 > 100 µM | DLD-1 > 100 µM | KM-20L2 > 100 µM | DMS-114 > 100 µM | DMS-273 > 100 µM

O=C1c2ccccc2C(=O)C1C(c1ccc(F)cc1)C1C(=O)c2ccccc2C1=O
inactive: RXF 631 > 100 µM | SNB-78 > 100 µM | XF498 > 100 µM | M19-MEL 61 µM | HOP-18 > 100 µM | DLD-1 > 100 µM | KM-20L2 > 100 µM | DMS-114 > 100 µM | DMS-273 > 100 µM

Clc1ccc(C2SCc3nc4ccccc4n32)c(Cl)c1 (configuration not stated)
inactive: XF498 19.1 µM | M19-MEL 14.8 µM | HOP-18 19.5 µM | DLD-1 15.7 µM | KM-20L2 21.4 µM | DMS-114 8.3 µM

CN(C)/N=N/c1c[nH]nc1C(N)=O
inactive: XF498 > 100 µM | M19-MEL > 100 µM | HOP-18 > 100 µM | DLD-1 > 100 µM | KM-20L2 > 100 µM | DMS-114 > 100 µM | DMS-273 > 100 µM

CCOC1=C2N=C(Cc3ccccc3F)N=C2C(=O)c2ccccc21
inactive: XF498 > 100 µM | M19-MEL > 100 µM | HOP-18 > 100 µM | DLD-1 > 100 µM | KM-20L2 > 100 µM | DMS-114 > 100 µM | DMS-273 > 100 µM

CCc1ccc(Cc2ccc(CC)c(NC(=O)C(=O)Cc3nc4ccccc4nc3C)c2CC)c(CC)c1NC(=O)C(=O)Cc1nc2ccccc2nc1C
inactive: RXF 631 84.9 µM | SNB-78 76.2 µM | M19-MEL > 100 µM | DLD-1 > 100 µM | KM-20L2 > 100 µM | DMS-114 47.5 µM

O=C(O)c1cc(S(=O)(=O)N/N=C\c2c3ccccc3[n+]([O-])c3ccccc23)ccc1O
inactive: SNB-78 20.6 µM | M19-MEL 13.3 µM | HOP-18 11.7 µM | DLD-1 16.7 µM | KM-20L2 13.3 µM | DMS-114 12.7 µM | DMS-273 7.16 µM

COc1ccc(C(=O)C=C2NCCN2)cc1
inactive: SNB-78 > 100 µM | M19-MEL > 100 µM | HOP-18 > 100 µM | DLD-1 > 100 µM | KM-20L2 > 100 µM | DMS-114 > 100 µM | DMS-273 > 100 µM

COc1ccc(C=C(c2ccc(OCc3ccccc3)cc2)c2ccc(OCc3ccccc3)cc2)cc1
inactive: RXF 631 > 100 µM | SNB-78 > 100 µM | XF498 > 100 µM | M19-MEL > 100 µM | HOP-18 > 100 µM | DLD-1 > 100 µM | KM-20L2 > 100 µM | DMS-114 > 100 µM | DMS-273 > 100 µM

CCCCCCCCCCn1cccc1/C=C/c1ccc(/C=C/c2cccn2CCCCCCCCCC)cc1
inactive: SNB-78 > 100 µM | XF498 > 100 µM | M19-MEL > 100 µM | HOP-18 > 100 µM | DLD-1 > 100 µM | KM-20L2 > 100 µM | DMS-114 > 100 µM | DMS-273 > 100 µM

CC1=Nn2c(nnc2-c2ccc(N)cc2)NC(C)(C)C1
inactive: RXF 631 > 100 µM | SNB-78 > 100 µM | XF498 > 100 µM | M19-MEL > 100 µM | HOP-18 > 100 µM | DLD-1 > 100 µM | KM-20L2 > 100 µM | DMS-114 > 100 µM | DMS-273 > 100 µM

COC12OCCN(C)C1=CC(=O)C1=NNC(C)C12 (configuration not stated)
inactive: RXF 631 > 100 µM | SNB-78 > 100 µM | M19-MEL > 100 µM | HOP-18 > 100 µM | DLD-1 > 100 µM | DMS-114 > 100 µM | DMS-273 > 100 µM

N#CC1(CCCCl)CCCCC1
inactive: RXF 631 > 100 µM | SNB-78 > 100 µM | XF498 > 100 µM | M19-MEL > 100 µM | HOP-18 72.9 µM | DLD-1 > 100 µM | KM-20L2 > 100 µM | DMS-114 > 100 µM | DMS-273 > 100 µM

C=CCOC(C)n1c(C)c(Br)c(=O)[nH]c1=O (configuration not stated)
inactive: XF498 > 100 µM | M19-MEL > 100 µM | DLD-1 > 100 µM | KM-20L2 > 100 µM | DMS-114 > 100 µM | DMS-273 > 100 µM

O=C(Nc1cc(Cl)c(Cl)cc1Cl)C(=O)C(C(=O)c1ccccc1)C1OC(=O)c2ccccc21 (configuration not stated)
inactive: RXF 631 > 100 µM | SNB-78 > 100 µM | XF498 > 100 µM | M19-MEL > 100 µM | HOP-18 38.3 µM | DLD-1 > 100 µM | KM-20L2 > 100 µM | DMS-114 > 100 µM | DMS-273 > 100 µM

O=C1CCC(c2nc3ccccc3o2)C(=O)N1 (configuration not stated)
inactive: RXF 631 > 100 µM | SNB-78 > 100 µM | M19-MEL > 100 µM | HOP-18 > 100 µM | DLD-1 > 100 µM | KM-20L2 > 100 µM | DMS-114 > 100 µM | DMS-273 > 100 µM

COC(=O)C1=C(C(=O)OC)C2(CCCCCC2=O)OC1=O (configuration not stated)
inactive: RXF 631 > 100 µM | SNB-78 > 100 µM | XF498 > 100 µM | M19-MEL > 100 µM | KM-20L2 > 100 µM | DMS-114 > 100 µM | DMS-273 > 100 µM

CCOC(=O)C(Cc1ccccc1)NC(=O)c1nc[nH]c1/N=N/N(C)C (configuration not stated)
inactive: M19-MEL > 100 µM | DLD-1 > 100 µM | DMS-114 > 100 µM | DMS-273 > 100 µM

Cc1c2ccncc2c(C)c2c1[nH]c1ccc(OC(C)(C)C)cc12
inactive: RXF 631 2.45 µM | SNB-78 2.41 µM | XF498 1.93 µM | M19-MEL 2.14 µM | DLD-1 2.39 µM | KM-20L2 1.78 µM | DMS-114 2.02 µM | DMS-273 1.86 µM

N#C/C(=C\c1cc(O)ccc1O)C(N)=O
inactive: RXF 631 58.1 µM | SNB-78 25.6 µM | XF498 65.3 µM | M19-MEL 51.3 µM | DLD-1 70.6 µM | KM-20L2 46.8 µM | DMS-114 24.8 µM | DMS-273 47.3 µM
